Source: patent publication US5656726A, “Peptide inhibitors of urokinase receptor activity” (Chiron Corporation, priority 1995, dated 1997)
pKd: −log10 of the molar value. Peptide text beside a SMILES is read from it.

What follows are molecules tested against T1, recombinant human urokinase receptor (truncated, soluble; suPAR) (Homo sapiens, UniProt Q03405) (assay: 125I-ATF competition binding on immobilized soluble recombinant human urokinase receptor). Conditions: synthesized peptide; assay performed at 100 pM ATF, 0.3 μg/mL suPAR in 200 μL (starred values); read-out: Affinity.
T1 construct: expressed as a truncated, soluble molecule as described previously for mouse L-cells (Masucci et al., J Biol Chem (1991) 266:8655); made in house
T1 sequence (Q03405 23-299 limits assumed): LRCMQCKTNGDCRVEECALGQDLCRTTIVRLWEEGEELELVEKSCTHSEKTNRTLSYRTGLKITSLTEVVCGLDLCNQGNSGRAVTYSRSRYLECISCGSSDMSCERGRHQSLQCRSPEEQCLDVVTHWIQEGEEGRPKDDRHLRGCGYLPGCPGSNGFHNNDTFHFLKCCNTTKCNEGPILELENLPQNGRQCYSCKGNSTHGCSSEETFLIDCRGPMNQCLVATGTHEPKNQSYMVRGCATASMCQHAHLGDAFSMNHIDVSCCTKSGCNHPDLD

| pKd | Compound |
| --- | --- |
| 6.46 | CC(C)C[C@H](NC(=O)[C@H](CO)NC(=O)[C@H](CO)NC(=O)[C@H](Cc1ccc(O)cc1)NC(=O)[C@@H](NC(=O)[C@H](Cc1c[nH]cn1)NC(=O)[C@H](CCC(=O)O)NC(=O)[C@H](C)N)[C@@H](C)O)C(=O)N[C@@H](Cc1c[nH]c2ccccc12)C(=O)N[C@@H](CC(=O)O)C(=O)N[C@H](C(=O)N[C@@H](Cc1ccc(O)cc1)C(=O)N[C@@H](CO)C(=O)N1CCC[C@H]1C(=O)N[C@@H](CC(C)C)C(=O)N[C@@H](C)C(=O)N[C@@H](Cc1ccccc1)C(N)=O)[C@@H](C)O (H-AEHTYSSLWDTYSPLAF-NH2) |
| 4.60 | CC[C@H](C)[C@H](NC(=O)[C@H](CCC(=O)O)NC(=O)[C@H](C)N)C(=O)N[C@@H](CCCCN)C(=O)N[C@H](C(=O)N[C@@H](CC(=O)O)C(=O)N[C@@H](CCC(=O)O)C(=O)N[C@@H](CCCCN)C(=O)N[C@@H](CCSC)C(=O)NCC(=O)N[C@@H](CC(C)C)C(=O)N[C@@H](Cc1c[nH]c2ccccc12)C(=O)N[C@@H](CC(=O)O)C(=O)N[C@@H](CC(C)C)C(=O)N[C@@H](Cc1ccc(O)cc1)C(=O)N[C@@H](CO)C(=O)N[C@@H](CCSC)C(N)=O)[C@@H](C)O (H-AEIKTDEKMGLWDLYSM-NH2) |
| 4.82 | CC[C@H](C)[C@H](NC(=O)[C@H](CCC(=O)O)NC(=O)[C@H](C)N)C(=O)N[C@@H](CC(C)C)C(=O)N[C@@H](CC(N)=O)C(=O)N[C@@H](Cc1ccccc1)C(=O)N1CCC[C@H]1C(=O)N[C@@H](CC(C)C)C(=O)N[C@@H](Cc1c[nH]c2ccccc12)C(=O)N[C@@H](Cc1c[nH]cn1)C(=O)N[C@@H](CCC(=O)O)C(=O)N1CCC[C@H]1C(=O)N[C@@H](CC(C)C)C(=O)N[C@@H](Cc1c[nH]c2ccccc12)C(=O)N[C@@H](CO)C(=O)N[C@H](C(=O)N[C@@H](CCC(=O)O)C(N)=O)[C@@H](C)O (H-AEILNFPLWHEPLWSTE-NH2) |
| 5.22 | CC[C@H](C)[C@H](NC(=O)[C@H](CCC(=O)O)NC(=O)[C@H](C)N)C(=O)N[C@@H](CO)C(=O)N[C@@H](Cc1ccccc1)C(=O)N[C@@H](CO)C(=O)N[C@@H](CCC(=O)O)C(=O)N[C@@H](CC(C)C)C(=O)N[C@@H](CCSC)C(=O)N[C@@H](Cc1c[nH]c2ccccc12)C(=O)N[C@@H](CC(C)C)C(=O)N[C@@H](CCCNC(=N)N)C(=O)N[C@@H](CO)C(=O)N[C@H](C(=O)N1CCC[C@H]1C(=O)N[C@@H](C)C(=O)N[C@@H](Cc1ccccc1)C(N)=O)[C@@H](C)O (H-AEISFSELMWLRSTPAF-NH2) |
| 6.10 | CSCC[C@H](NC(=O)[C@H](Cc1c[nH]c2ccccc12)NC(=O)[C@H](CC(C)C)NC(=O)[C@H](CC(=O)O)NC(=O)[C@H](CC(C)C)NC(=O)[C@H](CCC(=O)O)NC(=O)[C@H](C)N)C(=O)N[C@@H](CCCNC(=N)N)C(=O)N[C@@H](Cc1c[nH]cn1)C(=O)N[C@@H](Cc1ccc(O)cc1)C(=O)N1CCC[C@H]1C(=O)N[C@@H](CC(C)C)C(=O)N[C@@H](CO)C(=O)N[C@@H](Cc1ccccc1)C(=O)N[C@@H](CO)C(=O)N[C@@H](CC(N)=O)C(=O)N[C@@H](CCCNC(=N)N)C(N)=O (H-AELDLWMRHYPLSFSNR-NH2) |
| 4.70 | CC[C@H](C)[C@H](NC(=O)[C@H](Cc1c[nH]c2ccccc12)NC(=O)[C@H](CC(C)C)NC(=O)[C@H](CC(=O)O)NC(=O)[C@H](C)NC(=O)[C@H](CCC(=O)O)NC(=O)[C@H](CO)NC(=O)[C@H](CC(C)C)NC(=O)[C@H](CCC(=O)O)NC(=O)[C@H](C)N)C(=O)N[C@H](C(=O)N[C@@H](Cc1c[nH]c2ccccc12)C(=O)N[C@@H](Cc1ccccc1)C(=O)NCC(=O)N[C@@H](CCSC)C(=O)NCC(=O)N[C@@H](CO)C(N)=O)[C@@H](C)O (H-AELSEADLWITWFGMGS-NH2) |
| 7.82 | CSCC[C@H](NC(=O)[C@@H]1CCCN1C(=O)[C@H](CCC(=O)O)NC(=O)[C@H](C)N)C(=O)N1CCC[C@H]1C(=O)N[C@@H](Cc1c[nH]cn1)C(=O)N[C@@H](CO)C(=O)N[C@@H](CC(C)C)C(=O)N[C@@H](CC(N)=O)C(=O)N[C@@H](Cc1ccccc1)C(=O)N[C@@H](CO)C(=O)N[C@@H](CCC(N)=O)C(=O)N[C@@H](Cc1ccc(O)cc1)C(=O)N[C@@H](CC(C)C)C(=O)N[C@@H](Cc1c[nH]c2ccccc12)C(=O)N[C@@H](Cc1ccc(O)cc1)C(=O)N[C@H](C(N)=O)[C@@H](C)O (H-AEPMPHSLNFSQYLWYT-NH2) |

Same assay, conditions: synthesized peptide; corrected to 100 pM ATF, 0.3 μg/mL suPAR conditions, corrections about 3 × from previous assay conditions; read-out: Affinity

| pKd | Compound |
| --- | --- |
| 5.40 | CSCC[C@H](NC(=O)[C@@H](NC(=O)[C@H](CC(N)=O)NC(=O)[C@H](CO)NC(=O)[C@H](CC(C)C)NC(=O)[C@H](Cc1ccccc1)NC(=O)[C@H](Cc1c[nH]c2ccccc12)NC(=O)[C@H](C)NC(=O)[C@H](CCC(=O)O)NC(=O)[C@H](C)N)[C@@H](C)O)C(=O)N[C@@H](CCCCN)C(=O)N[C@@H](C)C(=O)N[C@@H](CC(C)C)C(=O)N[C@@H](CO)C(=O)N[C@@H](C)C(=O)N[C@@H](CCCNC(=N)N)C(=O)N[C@@H](CC(C)C)C(N)=O (H-AEAWFLSNTMKALSARL-NH2) |
| < 4.30 | CC(C)C[C@H](NC(=O)[C@H](CCC(=O)O)NC(=O)[C@H](C)N)C(=O)N1CCC[C@H]1C(=O)N[C@@H](CCCNC(=N)N)C(=O)N[C@H](C(=O)N[C@@H](CC(N)=O)C(=O)N1CCC[C@H]1C(=O)N[C@H](C(=O)N[C@H](C(=O)N[C@@H](C)C(=O)N[C@H](C(=O)N[C@@H](CCCCN)C(=O)N[C@@H](CC(N)=O)C(=O)N1CCC[C@H]1C(=O)N[C@@H](CO)C(=O)N[C@@H](Cc1ccccc1)C(N)=O)C(C)C)[C@@H](C)O)C(C)C)[C@@H](C)O (H-AELPRTNPVTAVKNPSF-NH2) |
| 5.52 | CC(C)C[C@H](NC(=O)CNC(=O)[C@@H]1CCCN1C(=O)[C@H](CC(N)=O)NC(=O)[C@H](Cc1ccccc1)NC(=O)[C@H](Cc1ccccc1)NC(=O)[C@H](Cc1ccccc1)NC(=O)[C@H](CO)NC(=O)[C@H](Cc1c[nH]c2ccccc12)NC(=O)[C@H](CC(N)=O)NC(=O)[C@H](CC(C)C)NC(=O)[C@H](CC(C)C)NC(=O)[C@H](C)NC(=O)[C@@H]1CCCN1C(=O)[C@H](CCC(=O)O)NC(=O)[C@H](C)N)C(=O)N[C@@H](Cc1c[nH]cn1)C(N)=O (H-AEPALLNWSFFFNPGLH-NH2) |
| 5.30 | CSCC[C@H](NC(=O)[C@H](C)NC(=O)[C@H](CC(C)C)NC(=O)[C@@H]1CCCN1C(=O)[C@@H]1CCCN1C(=O)[C@H](CC(C)C)NC(=O)[C@H](CO)NC(=O)[C@H](Cc1ccc(O)cc1)NC(=O)[C@H](CC(C)C)NC(=O)[C@H](CO)NC(=O)[C@H](Cc1c[nH]c2ccccc12)NC(=O)[C@H](CC(C)C)NC(=O)[C@H](CC(=O)O)NC(=O)[C@H](CC(C)C)NC(=O)[C@@H]1CCCN1C(=O)[C@H](CCC(=O)O)NC(=O)[C@H](C)N)C(N)=O (H-AEPLDLWSLYSLPPLAM-NH2) |
| < 4.30 | CC(C)C[C@H](NC(=O)[C@H](CO)NC(=O)[C@H](CC(C)C)NC(=O)[C@@H]1CCCN1C(=O)[C@H](CCC(=O)O)NC(=O)[C@H](C)N)C(=O)N[C@@H](Cc1ccc(O)cc1)C(=O)N[C@@H](CCC(N)=O)C(=O)N[C@@H](CCCCN)C(=O)N[C@@H](CCCCN)C(=O)N[C@H](C(=O)N[C@@H](CC(C)C)C(=O)N[C@@H](CCCNC(=N)N)C(=O)N[C@@H](Cc1c[nH]cn1)C(=O)N[C@@H](Cc1ccccc1)C(=O)N[C@@H](C)C(=O)N[C@@H](CC(N)=O)C(N)=O)[C@@H](C)O (H-AEPLSLYQKKTLRHFAN-NH2) |
| 5.30 | CC(C)C[C@H](NC(=O)[C@H](CCCNC(=N)N)NC(=O)[C@H](CC(C)C)NC(=O)[C@@H]1CCCN1C(=O)[C@H](Cc1ccccc1)NC(=O)[C@H](CCC(N)=O)NC(=O)[C@H](Cc1ccc(O)cc1)NC(=O)[C@H](CC(C)C)NC(=O)[C@H](CCC(N)=O)NC(=O)[C@H](Cc1c[nH]c2ccccc12)NC(=O)[C@H](CC(C)C)NC(=O)[C@@H](NC(=O)[C@@H]1CCCN1C(=O)[C@H](CCC(=O)O)NC(=O)[C@H](C)N)[C@@H](C)O)C(=O)N[C@@H](CO)C(=O)NCC(N)=O (H-AEPTLWQLYQFPLRLSG-NH2) |
| 5.15 | CC[C@H](C)[C@H](NC(=O)[C@H](CO)NC(=O)[C@@H](NC(=O)[C@H](CC(C)C)NC(=O)[C@@H](NC(=O)[C@@H]1CCCN1C(=O)[C@H](CC(C)C)NC(=O)[C@H](CO)NC(=O)[C@H](CCC(=O)O)NC(=O)[C@H](C)N)[C@@H](C)O)[C@@H](C)O)C(=O)N[C@@H](CC(C)C)C(=O)N[C@@H](Cc1c[nH]c2ccccc12)C(=O)NCC(=O)N[C@@H](CCCCN)C(=O)N[C@@H](CCC(=O)O)C(=O)N[C@@H](CO)C(=O)N[C@H](C(N)=O)C(C)C (H-AESLPTLTSILWGKESV-NH2) |
| 5.15 | CC(C)C[C@H](NC(=O)[C@@H](NC(=O)CNC(=O)[C@@H](NC(=O)[C@H](CCC(N)=O)NC(=O)[C@H](CO)NC(=O)[C@H](CCC(=O)O)NC(=O)[C@H](C)N)[C@@H](C)O)[C@@H](C)O)C(=O)N[C@@H](CC(N)=O)C(=O)N[C@H](C(=O)N[C@@H](CC(C)C)C(=O)N[C@@H](Cc1ccccc1)C(=O)N[C@@H](Cc1c[nH]c2ccccc12)C(=O)N[C@@H](CC(N)=O)C(=O)N[C@H](C(=O)N[C@@H](CC(C)C)C(=O)N[C@@H](CCCNC(=N)N)C(N)=O)[C@@H](C)O)[C@@H](C)O (H-AESQTGTLNTLFWNTLR-NH2) |
| 5.15 | CC[C@H](C)[C@H](NC(=O)[C@H](CCCNC(=N)N)NC(=O)[C@H](Cc1c[nH]c2ccccc12)NC(=O)[C@H](CC(C)C)NC(=O)[C@H](CO)NC(=O)[C@H](CO)NC(=O)[C@H](CCC(=O)O)NC(=O)[C@H](C)N)C(=O)N[C@@H](Cc1ccccc1)C(=O)N[C@@H](CO)C(=O)N1CCC[C@H]1C(=O)N[C@@H](CO)C(=O)N[C@@H](C)C(=O)N[C@@H](CC(C)C)C(=O)N[C@@H](CCSC)C(=O)N[C@@H](CCSC)C(=O)N[C@@H](CO)C(N)=O (H-AESSLWRIFSPSALMMS-NH2) |
| 6.46 | CSCC[C@H](NC(=O)[C@H](CO)NC(=O)[C@@H]1CCCN1C(=O)[C@H](Cc1c[nH]c2ccccc12)NC(=O)[C@H](C)NC(=O)[C@H](Cc1ccc(O)cc1)NC(=O)[C@H](CCCNC(=N)N)NC(=O)[C@@H](NC(=O)[C@H](Cc1c[nH]c2ccccc12)NC(=O)[C@H](CC(C)C)NC(=O)[C@H](CO)NC(=O)[C@H](CO)NC(=O)[C@H](CCC(=O)O)NC(=O)[C@H](C)N)[C@@H](C)O)C(=O)N1CCC[C@H]1C(=O)N[C@@H](CO)C(=O)N[C@@H](Cc1ccc(O)cc1)C(N)=O (H-AESSLWTRYAWPSMPSY-NH2) |
